Measurements from paper PMC6382835, “A critical evaluation of TRPA1-mediated locomotor behavior in zebrafish as a screening tool for novel anti-nociceptive drug discovery” (Scientific Reports, 2019).
Like-named read-outs stand apart in the source and are kept apart here.

Molecular target: T1, zebrafish TRPA1a (zTRPA1a) (Danio rerio, UniProt Q5UM15)
T1 sequence (Q5UM15 1-1115): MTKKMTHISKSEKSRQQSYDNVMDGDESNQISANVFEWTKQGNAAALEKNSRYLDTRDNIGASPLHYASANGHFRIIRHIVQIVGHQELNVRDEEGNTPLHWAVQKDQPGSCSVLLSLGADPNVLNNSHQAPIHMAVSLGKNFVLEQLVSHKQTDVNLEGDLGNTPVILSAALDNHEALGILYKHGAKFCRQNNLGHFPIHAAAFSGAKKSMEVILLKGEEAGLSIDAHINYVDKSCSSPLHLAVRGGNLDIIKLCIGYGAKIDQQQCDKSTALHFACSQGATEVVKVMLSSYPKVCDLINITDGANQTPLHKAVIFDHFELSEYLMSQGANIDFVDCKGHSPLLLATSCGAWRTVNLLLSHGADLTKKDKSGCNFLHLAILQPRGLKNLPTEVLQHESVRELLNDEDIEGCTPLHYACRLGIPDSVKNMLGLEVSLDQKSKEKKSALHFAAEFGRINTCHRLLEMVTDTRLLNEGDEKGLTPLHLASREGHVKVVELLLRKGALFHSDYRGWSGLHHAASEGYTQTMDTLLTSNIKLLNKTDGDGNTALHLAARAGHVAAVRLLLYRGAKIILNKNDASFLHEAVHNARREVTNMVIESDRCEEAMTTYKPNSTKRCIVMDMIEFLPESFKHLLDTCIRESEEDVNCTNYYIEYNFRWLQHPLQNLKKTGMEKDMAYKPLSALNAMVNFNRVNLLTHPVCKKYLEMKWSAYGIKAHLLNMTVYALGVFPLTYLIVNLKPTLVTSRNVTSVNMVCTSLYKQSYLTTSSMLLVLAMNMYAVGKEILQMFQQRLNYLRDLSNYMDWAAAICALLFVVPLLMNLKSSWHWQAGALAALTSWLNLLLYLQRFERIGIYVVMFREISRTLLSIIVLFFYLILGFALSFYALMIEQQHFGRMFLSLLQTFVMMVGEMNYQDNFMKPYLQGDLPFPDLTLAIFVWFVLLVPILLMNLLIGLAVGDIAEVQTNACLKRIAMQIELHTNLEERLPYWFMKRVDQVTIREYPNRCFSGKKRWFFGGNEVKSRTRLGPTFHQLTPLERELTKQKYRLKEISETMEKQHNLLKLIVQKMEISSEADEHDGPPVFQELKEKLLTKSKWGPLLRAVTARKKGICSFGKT
Experiment: FLIPR calcium signaling assay in zTRPA1a-transfected HEK293 cells
Type: cell-based
Description: The cells were maintained in a 37 °C incubator with consistent 5% CO2. […] Experiments were carried out with the approval of the Institutional Biohazard Committee (#13-013-16).
Twenty-five µl calcium sensitive Fluorescent Imaging Plate Reader (FLIPR) Calcium 6 assay dye (#R8190, Molecular Devices, CA, USA) was added to each well of a 384-well plate containing HEK293 cells transiently expressing mTRPA1, zTRPA1a, and zTRPA1b, respectively. The cells were incubated for an hour prior to the recording of intracellular calcium levels in a FlexStation3 Multi-Mode Microplate Reader (#R8190, Molecular Devices) as previously described. […] During the assay, the cells were challenged by a 5x ASP7663 solution or 1% DMSO solution at the 20 seconds time point, and both solutions were diluted in calcium buffer. Relative fluorescence units (RFU) were measured for 120 seconds period by the Flexstation. […] For each specific antagonist concentration we plotted Log(dose ratio-1) against the antagonist concentration in a Schild plot. The dose ratio (A’/A) equals the EC50 of the agonist (ASP7665) in the presence of a concentration of the antagonist (A’) divided by the EC50 of the agonist in the absence of antagonist (A). The x-intercept of the Schild plot was used to identify the antagonist-receptor affinity (pA2).
All data are presented as means ± standard error of the mean (SEM). For our in vitro statistical analysis, AUC of calcium influx (RFU) was measured to plot dose-response curves, which were further analyzed by nonlinear regression analysis. Mean RFU of the first 10 seconds was used as a baseline of the AUC. EC50 values of the dose-response curves were further used to plot Schild curves, and the curves were analyzed with linear regression analysis. For the mice von Frey test, mechanical thresholds were analyzed with two-way ANOVA followed by a Bonferonni test for multiple comparison analysis. For the zebrafish behavior test, the data from the first five seconds following drug administration were excluded, as zebrafish displacement during that period was highly influenced by liquid dispensing. AUC of all curves were measured and analyzed by one-way ANOVA. The post-hoc analysis was conducted with the Tukey’s or Dunnett’s multiple comparisons unless it stated otherwise. […] For our time-course average displacement graph, we used 2nd degree polynomial smoothing for a better representation; however, we used data before smoothing for all statistical analysis and quantification. All in vitro and in vivo data were evaluated using GraphPad Prism 7 (GraphPad Software, La Jolla, CA) unless it stated otherwise.

[1] = agonist calcium influx, zTRPA1a-transfected HEK293, read-out: EC50 (potency in µM)

Row | Structure (SMILES) | EC50 (agonist calcium influx, AUC of RFU, zTRPA1a-transfected HEK293, read-out: pEC50 (AITC given as EC50) (converted)) | EC50 [1] | pEC50 (AITC given as EC50) (agonist calcium influx, AUC of RFU, zTRPA1a-transfected HEK293) | calcium influx by antagonist alone (316 µM, zTRPA1a-transfected cells) | pEC50 (weak agonist activity) (HC030031 alone, zTRPA1a-transfected HEK293, Supplemental Fig. 6) | pA2 expressed in µM (Schild plot against ASP7663-mediated calcium influx, zTRPA1a) | pA2 (Schild plot against ASP7663-mediated calcium influx, zTRPA1a, only two antagonist doses) | Schild slope (zTRPA1a, n = 3)
1 | C=CCN=C=S [AITC, allyl isothiocyanate] | 25.1 µM | 26.6 µM | – | – | – | – | – | –
2 | CC(C)CN1C(=O)/C(=C/C(=O)O)c2cccc(F)c21 [ASP7663] | – | 118 µM | 3.9 ± 0.18 | – | – | – | – | –
3 | CC(C)c1ccc(NC(=O)Cn2cnc3c2c(=O)n(C)c(=O)n3C)cc1 [HC-030031] | – | – | – | could produce an influx of intracellular calcium | 2.85 ± 0.19 | 26.8 µM | 4.6 ± 0.2 | 0.84 ± 0.22
